Measurements from patent US4267331A, “Process for the production of 2-substituted pyrido[4,3-b]-indoles” (Pfizer Inc., priority 1980, dated 1981).
Read-outs that look alike come from different tables or passages of the source.

Test system: amphetamine-induced symptoms (cage movement behavior after d-amphetamine sulfate)
Experiment: Antagonism of amphetamine stereotypy in rats
Assay type: in vivo
Conditions: Rattus norvegicus, sc, Part A
Source text: The tranquilizing agents of the present invention are characterized by relief of such schizophrenic manifestations in humans as hallucinations, hostility, suspiciousness, emotional or social withdrawal, anxiety, agitation and tension. A standard procedure of detecting and comparing tranquilizing activity of compounds in this series and for which there is an excellent correlation with human efficacy is the antagonism of amphetamine-induced symptoms in rat tests, as taught by A. Weissman, et al., J. Pharmacol. Exp. Ther., 151, 339 (1966) and by Quinton, et al., Nature, 200, 178, (1963).
Antagonism of Amphetamine Stereotypy in Rats Test Procedures and Results
The effects of the compounds of the present invention on prominent amphetamine-induced symptoms were studied in rats by a rating scale modeled after the one reported by Quinton and Halliwell, and Weissman. Groups of five rats were placed in a covered plastic cage measuring approximately 26 cm.×42 cm.×16 cm. After a brief period of acclimation in the cage, the rats in each group were treated subcutaneously (s.c.) with the test compound. They were then treated 1, 5 and 24 hrs. later with d-amphetamine sulfate, 5 mg./kg. intraperitoneally (i.p.). […] On the basis of dose-response data after amphetamine it was possible to determine the effective dose of the compound necessary to antagonize or block the characteristic amphetamine behavior of cage movement for fifty percent of the rats tested (ED50). The time of rating chosen coincides with the peak action of amphetamine which is 60-80 min. after treatment with this agent.
Employing the above-described procedure, the following 4a,9b-trans compounds were tested for their ability to block the behavior effects of amphetamine, the results being reported as the ED50 in mg./kg. at the indicated times: [drawing 33]

COc1ccc(C(O)CCCN2CCC3C(C2)c2cc(F)ccc2N3c2ccc(F)cc2)cc1 (stereo not drawn)
ED50 (1 h, s.c. per method b367, 1 Hr., read-out: ED50 (mg./kg.) 1 Hr., antagonism of amphetamine stereotypy): 0.1 to 0.32 mg/kg | ED50 (5 h, s.c. per method b367, 5 Hr., read-out: ED50 (mg./kg.) 5 Hr., antagonism of amphetamine stereotypy): < 0.1 mg/kg | ED50 (24 h, s.c. per method b367, 24 Hrs., read-out: ED50 (mg./kg.) 24 Hrs., antagonism of amphetamine stereotypy): < 0.32 mg/kg
